Measurements reported in patent US10966426B2, “Herbicidal compositions comprising phenylpyrimidines” (BASF SE, priority 2016, dated 2021).

Assays:
Type in all cases: in vivo
Poa annua = test: greenhouse pre-emergence treatment, POAAN; details: clomazone solo (CS 360 g/l), 20 DAT
Source text: (§1) The culture containers used were plastic pots containing loamy sand with approximately 3.0% of humus as substrate. The seeds of the test plants were sown separately for each species.
(§2) For the pre-emergence treatment, the active compounds, suspended or emulsified in water, were applied directly after sowing by means of finely distributing nozzles. The containers were irrigated gently to promote germination and growth and subsequently covered with transparent plastic hoods until the plants had rooted. This cover caused uniform germination of the test plants unless this was adversely affected by the active compounds.
(§3) Depending on the species, the plants were kept at 10-25° C. and 20-35° C., respectively.
(§4) The test period extended over 2 to 4 weeks. During this time, the plants were tended and their response to the individual treatments was evaluated.
(§5) Evaluation was carried out using a scale from 0 to 100. 100 means no emergence of the plants, or complete destruction of at least the above-ground parts, and 0 means no damage or normal course of growth. A good herbicidal activity is given at values of at least 70, and very good herbicidal activity is given at values of at least 85.
(§6) The respective stated components A and B, and if appropriate, C were formulated as a 10% by weight strength emulsion concentrate and, with addition of the amount of solvent system, introduced into the spray liquor used for applying the active compound. In the examples, the solvent used was water.
(§7) In the examples below, using the method of S. R. Colby (1967) “Calculating synergistic and antagonistic responses of herbicide combinations”, Weeds 15, p. 22ff., the value E, which is expected if the activity of the individual active compounds is only additive, was calculated. E=X+Y−(X·Y/100) where X=effect in percent using herbicide A at an application rate a; • Y=effect in percent using herbicide B at application rate b; • E=expected effect (in %) of herbicide A+herbicide B at application rates a+b.

Alopecurus myosuroides = test: greenhouse pre-emergence treatment, ALOMY; details: clomazone solo (CS 360 g/l), 30 gai/ha, 20 DAT
Source text: as §1, §2, §3, §4, §5, §6, §7

Avena fatua = test: greenhouse pre-emergence treatment, AVEFA; details: Avena fatua, 480 h, read-out: % activity
In short: (§8)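 Pre-emergence spray of compounds, alone or as combinations formulated as 10% emulsion concentrate in water, directly after sowing in loamy sand (~3.0% humus); pots hooded until rooting, kept at 10-25° C or 20-35° C per species for 2 to 4 weeks. Damage scored 0-100 (100 = no emergence/complete destruction); Colby expected value E=X+Y−(X·Y/100).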

Helianthus annuus = test: greenhouse pre-emergence treatment, HELAN; details: Helianthus annuus, 480 h, read-out: % activity
In short: as §8

Lolium multiflorum = test: greenhouse pre-emergence treatment, LOLMU; details: Lolium multiflorum, 480 h, read-out: % activity
Source text: as §1, §2, §3, §4, §5, §6, §7

Polygonum convolvulus = test: greenhouse pre-emergence treatment, POLCO; details: Fallopia convolvulus, 480 h, read-out: % activity
Source text: as §1, §2, §3, §4, §5, §6, §7

Setaria viridis = test: greenhouse pre-emergence treatment, SETVI; details: SETVI, 20 DAT
Source text: as §1, §2, §3, §4, §5, §6, §7

Galium aparine = test: greenhouse pre-emergence treatment, GALAP; details: Galium aparine, 480 h, read-out: % activity
Source text: as §1, §2, §3, §4, §5, §6, §7

Echinocloa crus-galli = test: greenhouse pre-emergence treatment, ECHCG; details: clomazone solo (CS 360 g/l), 120 gai/ha, 20 DAT
Source text: as §1, §2, §3, §4, §5, §6, §7

Digitaria sanguinalis = test: greenhouse pre-emergence treatment, DIGSA
Source text: as §1, §2, §3, §4, §5, §6, §7

Bromus sterilis = test: greenhouse pre-emergence treatment, BROST; details: Bromus sterilis, 480 h, read-out: % activity
In short: as §8

Brachiaria decumbens = test: greenhouse pre-emergence treatment, BRADC; details: BRADC, 20 DAT; for % activity: clomazone solo (CS 360 g/l)
In short: as §8

Apera spica-venti = test: greenhouse pre-emergence treatment, APESV; details: clomazone solo (CS 360 g/l), 20 DAT
Source text: as §1, §2, §3, §4, §5, §6, §7

Ambrosia elatior = test: greenhouse pre-emergence treatment, AMBEL; details: AMBEL, 20 DAT; for % activity: clomazone solo (CS 360 g/l)
In short: as §8

## CC1(C)CON(Cc2ccccc2Cl)C1=O [clomazone]
Poa annua; 15 gai/ha
  % activity: 0%
Poa annua; 30 gai/ha
  % activity: 0%
Poa annua; 60 gai/ha
  % activity: 30%
Poa annua; 120 gai/ha
  % activity: 80%
Alopecurus myosuroides
  % activity: 0%
Avena fatua
  pest or weed control at 30 g/ha: 0%
Helianthus annuus
  plant injury at 30 g/ha: 10%
Lolium multiflorum
  pest or weed control at 60 g/ha: 40%
  pest or weed control at 120 g/ha: 60%
Polygonum convolvulus
  pest or weed control at 60 g/ha: 60%
  pest or weed control at 120 g/ha: 75%
Setaria viridis; solo clomazone (CS 360 g/l) 30 gai/ha
  % activity: 0%
Setaria viridis; clomazone solo (CS 360 g/l), 60 gai/ha
  % activity: 30%
Setaria viridis; clomazone solo (CS 360 g/l), 120 gai/ha
  % activity: 65%
Setaria viridis; clomazone solo (CS 360 g/l), 125 gai/ha
  % activity: 65%
Galium aparine
  pest or weed control at 30 g/ha: 80%
Echinocloa crus-galli
  % activity: 90%
Digitaria sanguinalis; Digitaria sanguinalis, 480 h, DIGSA, 20 DAT, solo clomazone (CS 360 g/l) 60 gai/ha
  pest or weed control at 60 g/ha: 0%
Digitaria sanguinalis; Digitaria sanguinalis, 480 h, DIGSA, 20 DAT, solo clomazone (CS 360 g/l) 120 gai/ha
  pest or weed control at 120 g/ha: 30%
Digitaria sanguinalis; Digitaria sanguinalis, 480 h, read-out: % activity
  pest or weed control at 15 g/ha: 0%
Digitaria sanguinalis; clomazone solo (CS 360 g/l), 120 gai/ha, 20 DAT, DIGSA
  % activity: 30%
Bromus sterilis
  pest or weed control at 30 g/ha: 0%
  pest or weed control at 120 g/ha: 30%
Brachiaria decumbens; Urochloa decumbens, 480 h, solo clomazone (CS 360 g/l) 15 gai/ha
  pest or weed control at 15 g/ha: 0%
Brachiaria decumbens; Urochloa decumbens, 480 h, solo clomazone (CS 360 g/l) 30 gai/ha
  pest or weed control at 30 g/ha: 0%
Brachiaria decumbens; Urochloa decumbens, 480 h, solo clomazone (CS 360 g/l) 60 gai/ha
  pest or weed control at 60 g/ha: 0%
Brachiaria decumbens; Urochloa decumbens, 480 h, solo clomazone (CS 360 g/l) 120 gai/ha
  pest or weed control at 120 g/ha: 30%
Brachiaria decumbens; 30 gai/ha
  % activity: 0%
Brachiaria decumbens; 60 gai/ha
  % activity: 0%
Brachiaria decumbens; 120 gai/ha
  % activity: 30%
Apera spica-venti; 15 gai/ha
  % activity: 20%
Apera spica-venti; 120 gai/ha
  % activity: 65%
Ambrosia elatior; Ambrosia artemisiifolia, 480 h, solo clomazone (CS 360 g/l) 15 gai/ha
  pest or weed control at 15 g/ha: 0%
Ambrosia elatior; Ambrosia artemisiifolia, 480 h, solo clomazone (CS 360 g/l) 60 gai/ha
  pest or weed control at 60 g/ha: 10%
Ambrosia elatior; Ambrosia artemisiifolia, 480 h, solo clomazone (CS 360 g/l) 120 gai/ha
  pest or weed control at 120 g/ha: 10%
Ambrosia elatior; Ambrosia artemisiifolia, 480 h, solo clomazone (CS 360 g/l) 1250 gai/ha
  pest or weed control at 1250 g/ha: 10%
Ambrosia elatior; 60 gai/ha
  % activity: 10%
Ambrosia elatior; 120 gai/ha
  % activity: 10%
